target: T1, F508del (Homo sapiens, UniProt P13569, DEL508-508); assay: Protocol 2: FRET membrane potential optical assay (VIPR), identification of correction compounds; type: cell-based; conditions: F508del CFTR modulator activity; compounds of Table 1; read-out: EC30
T1 construct: expressed in transfected cells
Procedure, shortened: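 Corrector readout: membrane-potential FRET (CC2-DMPE donor, DiSBAC2(3) acceptor) on VIPR II after Cl⁻-free gluconate bath with 10 μM forskolin and 20 μM genistein. Before this, F508del-expressing NIH3T3 cells were exposed to test compound for 16 h at 37 °C without serum; 27 °C incubation served as temperature-correction control.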

T1 sequence (P13569 with tags, fused parts or gaps DEL508-508): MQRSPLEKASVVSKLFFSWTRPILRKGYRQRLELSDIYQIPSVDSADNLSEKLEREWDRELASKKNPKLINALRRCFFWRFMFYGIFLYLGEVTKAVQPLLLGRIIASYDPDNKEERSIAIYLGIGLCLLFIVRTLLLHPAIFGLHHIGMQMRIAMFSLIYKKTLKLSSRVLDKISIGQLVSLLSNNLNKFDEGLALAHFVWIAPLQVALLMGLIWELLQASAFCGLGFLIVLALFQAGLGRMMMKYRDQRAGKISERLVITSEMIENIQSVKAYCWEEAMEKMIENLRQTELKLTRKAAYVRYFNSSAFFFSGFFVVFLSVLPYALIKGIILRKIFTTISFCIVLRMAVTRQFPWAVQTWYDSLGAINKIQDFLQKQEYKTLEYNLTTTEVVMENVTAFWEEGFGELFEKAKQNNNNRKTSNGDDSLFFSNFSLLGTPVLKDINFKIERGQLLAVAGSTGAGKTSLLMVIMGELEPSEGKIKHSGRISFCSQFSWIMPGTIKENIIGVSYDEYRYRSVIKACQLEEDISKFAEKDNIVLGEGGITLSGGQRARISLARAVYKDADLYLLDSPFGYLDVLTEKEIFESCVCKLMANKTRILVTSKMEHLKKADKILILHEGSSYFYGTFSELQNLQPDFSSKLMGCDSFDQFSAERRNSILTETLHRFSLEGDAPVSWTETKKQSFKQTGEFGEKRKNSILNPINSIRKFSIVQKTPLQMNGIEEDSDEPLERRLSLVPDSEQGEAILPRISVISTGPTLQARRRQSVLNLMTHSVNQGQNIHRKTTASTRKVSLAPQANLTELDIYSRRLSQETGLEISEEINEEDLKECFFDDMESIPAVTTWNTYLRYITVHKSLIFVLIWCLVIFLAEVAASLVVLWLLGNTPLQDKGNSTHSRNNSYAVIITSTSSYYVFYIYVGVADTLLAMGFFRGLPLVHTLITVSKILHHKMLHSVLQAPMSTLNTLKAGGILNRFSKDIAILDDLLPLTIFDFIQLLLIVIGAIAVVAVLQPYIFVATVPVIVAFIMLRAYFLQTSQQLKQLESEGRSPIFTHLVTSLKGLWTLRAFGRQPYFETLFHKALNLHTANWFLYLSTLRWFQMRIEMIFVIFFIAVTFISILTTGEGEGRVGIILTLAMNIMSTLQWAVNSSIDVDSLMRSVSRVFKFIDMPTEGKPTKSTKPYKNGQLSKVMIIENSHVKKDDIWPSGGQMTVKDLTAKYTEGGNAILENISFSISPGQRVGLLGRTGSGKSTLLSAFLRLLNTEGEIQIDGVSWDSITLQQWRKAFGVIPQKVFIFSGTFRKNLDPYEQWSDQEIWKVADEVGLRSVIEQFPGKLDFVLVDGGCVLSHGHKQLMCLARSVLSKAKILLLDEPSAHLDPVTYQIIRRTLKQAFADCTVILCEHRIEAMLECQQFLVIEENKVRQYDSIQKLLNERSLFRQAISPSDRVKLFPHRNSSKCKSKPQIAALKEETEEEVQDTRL

EC30	SMILES
< 3000 nM	Cc1cc(C)cc(-c2ccc(C(=O)NS(=O)(=O)c3cccnc3N)c(N3C[C@@H](C)CC3(C)C)n2)c1 [Compound 2127, N-[(2-amino-3-pyridyl)sulfonyl]-6-(3,5-dimethylphenyl)-2-[(4S)-2,2,4-trimethylpyrrolidin-1-yl]pyridine-3-carboxamide]
< 3000 nM	CC1CN(c2ncc(C3=CCN(C(=O)OC(C)(C)C)CC3)cc2C(=O)NS(=O)(=O)c2cccc(N)n2)C(C)(C)C1 (stereo not shown) [Compound 2129, tert-butyl 4-[5-[(6-amino-2-pyridyl)sulfonylcarbamoyl]-6-(2,2,4-trimethylpyrrolidin-1-yl)-3-pyridyl]-3,6-dihydro-2H-pyridine-1-carboxylate]
> 10000 nM	CC1CN(c2ncccc2C(=O)NS(=O)(=O)c2cccc(NCC3CCCO3)n2)C(C)(C)C1 (stereo not shown) [Compound 2131, N—[[6-(tetrahydrofuran-2-ylmethylamino)-2-pyridyl]sulfonyl]-2-(2,2,4-trimethylpyrrolidin-1-yl)pyridine-3-carboxamide]
< 3000 nM	Cc1ccc(-c2ccc(C(=O)NS(=O)(=O)c3cccnc3N)c(N3C[C@@H](C)CC3(C)C)n2)cc1 [Compound 2132, N-[(2-amino-3-pyridyl)sulfonyl]-6-(p-tolyl)-2-[(4S)-2,2,4-trimethylpyrrolidin-1-yl]pyridine-3-carboxamide]
< 3000 nM	Cc1cccc(-c2ccc(C(=O)NS(=O)(=O)c3ccccc3)c(N3C[C@@H](C)CC3(C)C)n2)c1O [Compound 2133, N-(benzenesulfonyl)-6-(2-hydroxy-3-methyl-phenyl)-2-[(4S)-2,2,4-trimethylpyrrolidin-1-yl]pyridine-3-carboxamide]
< 3000 nM	CCOC(=O)c1ccc(OC)c(-c2cnc(N3CC(C)CC3(C)C)c(C(=O)NS(=O)(=O)c3cccc(N)n3)c2)c1 (stereo not shown) [Compound 2134, ethyl 3-[5-[(6-amino-2-pyridyl)sulfonylcarbamoyl]-6-(2,2,4-trimethylpyrrolidin-1-yl)-3-pyridyl]-4-methoxy-benzoate]
3000 to 10000 nM	COCCCNc1cccc(S(=O)(=O)NC(=O)c2cccnc2N2CC(C)CC2(C)C)n1 (stereo not shown) [Compound 2135, N—[[6-(3-methoxypropylamino)-2-pyridyl]sulfonyl]-2-(2,2,4-trimethylpyrrolidin-1-yl)pyridine-3-carboxamide]
< 3000 nM	CC1CN(c2ncccc2C(=O)NS(=O)(=O)c2cccc(Nc3cccc4ccccc34)n2)C(C)(C)C1 (stereo not shown) [Compound 2136, N—[[6-(1-naphthylamino)-2-pyridyl]sulfonyl]-2-(2,2,4-trimethylpyrrolidin-1-yl)pyridine-3-carboxamide]
< 3000 nM	CC1CN(c2ncccc2C(=O)NS(=O)(=O)c2cccc(OCC(C)(C)n3cccc3)n2)C(C)(C)C1 (stereo not shown) [Compound 2137, N—[[6-(2-methyl-2-pyrrol-1-yl-propoxy)-2-pyridyl]sulfonyl]-2-(2,2,4-trimethylpyrrolidin-1-yl)pyridine-3-carboxamide]
< 3000 nM	CCOc1ccc(F)c(-c2ccc(C(=O)NS(=O)(=O)c3ccc[nH]c3=O)c(N3C[C@@H](C)CC3(C)C)n2)c1 [Compound 2138, 6-(5-ethoxy-2-fluoro-phenyl)-N-[(2-oxo-1H-pyridin-3-yl)sulfonyl]-2-[(4S)-2,2,4-trimethylpyrrolidin-1-yl]pyridine-3-carboxamide]
< 3000 nM	CC(C)(C)c1ccc(C(=O)NS(=O)(=O)c2cccc(N)n2)c(N2CCC(C3CCOCC3)C2(C)C)n1 (stereo not shown) [Compound 2139]
3000 to 10000 nM	COC(=O)c1ccc(Nc2cccc(S(=O)(=O)NC(=O)c3cccnc3N3CC(C)CC3(C)C)n2)nc1 (stereo not shown) [Compound 2140, methyl 6-[[6-[[2-(2,2,4-trimethylpyrrolidin-1-yl)pyridine-3-carbonyl]sulfamoyl]-2-pyridyl]amino]pyridine-3-carboxylate]
< 3000 nM	C[C@@H]1CN(c2ncccc2C(=O)NS(=O)(=O)N2CCN(CCCc3ccc(Cl)cc3)CC2)C(C)(C)C1 [Compound 2141, N-[4-[3-(4-chlorophenyl)propyl]piperazin-1-yl]sulfonyl-2-[(4S)-2,2,4-trimethylpyrrolidin-1-yl]pyridine-3-carboxamide]
< 3000 nM	CC1CN(c2ncccc2C(=O)NS(=O)(=O)c2cccc(Nc3cccc(C(C)(C)C)c3)n2)C(C)(C)C1 (stereo not shown) [Compound 2142, N—[[6-(3-tert-butylanilino)-2-pyridyl]sulfonyl]-2-(2,2,4-trimethylpyrrolidin-1-yl)pyridine-3-carboxamide]
< 3000 nM	CC1CN(c2ncccc2C(=O)NS(=O)(=O)c2cccc(Nc3cccc(OC(F)(F)F)c3)n2)C(C)(C)C1 (stereo not shown) [Compound 2143, N—[[6-[3-(trifluoromethoxy)anilino]-2-pyridyl]sulfonyl]-2-(2,2,4-trimethylpyrrolidin-1-yl)pyridine-3-carboxamide]
< 3000 nM	C[C@@H]1CN(c2nc(-c3cccc(C(F)(F)F)c3)ccc2C(=O)NS(=O)(=O)c2ccc[nH]c2=O)C(C)(C)C1 [Compound 2144, N-[(2-oxo-1H-pyridin-3-yl)sulfonyl]-6-[3-(trifluoromethyl)phenyl]-2-[(4S)-2,2,4-trimethylpyrrolidin-1-yl]pyridine-3-carboxamide]
< 3000 nM	CC1CN(c2ncccc2C(=O)NS(=O)(=O)c2cccc(Oc3ccc(Cl)cc3)n2)C(C)(C)C1 (stereo not shown) [Compound 2145, N—[[6-(4-chlorophenoxy)-2-pyridyl]sulfonyl]-2-(2,2,4-trimethylpyrrolidin-1-yl)pyridine-3-carboxamide]
< 3000 nM	CC1CN(c2ncccc2C(=O)NS(=O)(=O)c2cccc(NCCc3cccs3)n2)C(C)(C)C1 (stereo not shown) [Compound 2146, N—[[6-[2-(2-thienyl)ethylamino]-2-pyridyl]sulfonyl]-2-(2,2,4-trimethylpyrrolidin-1-yl)pyridine-3-carboxamide]
< 3000 nM	CC1CN(c2ncccc2C(=O)NS(=O)(=O)c2cccc(OC3C=CCCC3)n2)C(C)(C)C1 (stereo not shown) [Compound 2147, N-[(6-cyclohex-2-en-1-yloxy-2-pyridyl)sulfonyl]-2-(2,2,4-trimethylpyrrolidin-1-yl)pyridine-3-carboxamide]
3000 to 10000 nM	Cc1ccc(-c2ccc(C(=O)NS(=O)(=O)c3ccc[nH]c3=O)c(N3C[C@@H](C)CC3(C)C)n2)c(O)c1 [Compound 2148, 6-(2-hydroxy-4-methyl-phenyl)-N-[(2-oxo-1H-pyridin-3-yl)sulfonyl]-2-[(4S)-2,2,4-trimethylpyrrolidin-1-yl]pyridine-3-carboxamide]
< 3000 nM	CCOc1ccc(F)c(-c2ccc(C(=O)NS(=O)(=O)c3cccnc3N)c(N3C[C@@H](C)CC3(C)C)n2)c1 [Compound 2149, N-[(2-amino-3-pyridyl)sulfonyl]-6-(5-ethoxy-2-fluoro-phenyl)-2-[(4S)-2,2,4-trimethylpyrrolidin-1-yl]pyridine-3-carboxamide]
< 3000 nM	CC(C)Cc1ccc(C(=O)NS(=O)(=O)c2cccnc2N)c(N2C[C@@H](C)CC2(C)C)n1 [Compound 2150, N-[(2-amino-3-pyridyl)sulfonyl]-6-isobutyl-2-[(4S)-2,2,4-trimethylpyrrolidin-1-yl]pyridine-3-carboxamide]
< 3000 nM	CC1CN(c2ncccc2C(=O)NS(=O)(=O)c2cccc(OCc3ccc4ccccc4c3)n2)C(C)(C)C1 (stereo not shown) [Compound 2151, N—[[6-(2-naphthylmethoxy)-2-pyridyl]sulfonyl]-2-(2,2,4-trimethylpyrrolidin-1-yl)pyridine-3-carboxamide]
3000 to 10000 nM	COC1CCCN(c2cccc(S(=O)(=O)NC(=O)c3cccnc3N3CC(C)CC3(C)C)n2)C1 (stereo not shown) [Compound 2152, N—[[6-(3-methoxy-1-piperidyl)-2-pyridyl]sulfonyl]-2-(2,2,4-trimethylpyrrolidin-1-yl)pyridine-3-carboxamide]
< 3000 nM	Cc1ccc(-c2ccc(C(=O)NS(=O)(=O)c3ccc[nH]c3=O)c(N3C[C@@H](C)CC3(C)C)n2)cc1C [Compound 2154, 6-(3,4-dimethylphenyl)-N-[(2-oxo-1H-pyridin-3-yl)sulfonyl]-2-[(4S)-2,2,4-trimethylpyrrolidin-1-yl]pyridine-3-carboxamide]
< 3000 nM	CC(C)Oc1cccc(-c2ccc(C(=O)NS(=O)(=O)N3CC[C@H](N)C3)c(N3C[C@@H](C)CC3(C)C)n2)c1 [Compound 2156, N-[(3S)-3-aminopyrrolidin-1-yl]sulfonyl-6-(3-isopropoxyphenyl)-2-[(4S)-2,2,4-trimethylpyrrolidin-1-yl]pyridine-3-carboxamide]
> 10000 nM	CC1CN(c2ncc(-c3cccc4[nH]ncc34)cc2C(=O)NS(=O)(=O)c2cccc(N)n2)C(C)(C)C1 (stereo not shown) [Compound 2157, N-[(6-amino-2-pyridyl)sulfonyl]-5-(1H-indazol-4-yl)-2-(2,2,4-trimethylpyrrolidin-1-yl)pyridine-3-carboxamide]

SMILES	EC30
CC(C)COc1cc(F)cc(-c2ccc(C(=O)NS(=O)(=O)c3cccc(N)n3)c(N3CC(F)C3)n2)c1 [Compound 2128, N-[(6-amino-2-pyridyl)sulfonyl]-2-(3-fluoroazetidin-1-yl)-6-(3-fluoro-5-isobutoxy-phenyl)pyridine-3-carboxamide]	3000 to 10000 nM
CCCC(C)(C)Oc1cccc(S(=O)(=O)NC(=O)c2cccnc2N2CC(C)CC2(C)C)n1 (stereo not shown) [Compound 2130, N—[[6-(1,1-dimethylbutoxy)-2-pyridyl]sulfonyl]-2-(2,2,4-trimethylpyrrolidin-1-yl)pyridine-3-carboxamide]	< 3000 nM
CC(C)COc1ccc(-c2ccc(C(=O)NS(=O)(=O)c3ccc[nH]c3=O)c(N3C[C@@H](C)CC3(C)C)n2)cc1 [Compound 2153, 6-(4-isobutoxyphenyl)-N-[(2-oxo-1H-pyridin-3-yl)sulfonyl]-2-[(4S)-2,2,4-trimethylpyrrolidin-1-yl]pyridine-3-carboxamide]	< 3000 nM
CC(C)COc1cc(F)cc(-c2ccc(C(=O)NS(=O)(=O)c3cccc(N)n3)c(N3CC(F)(F)C3)n2)c1 [Compound 2155, N-[(6-amino-2-pyridyl)sulfonyl]-2-(3,3-difluoroazetidin-1-yl)-6-(3-fluoro-5-isobutoxy-phenyl)pyridine-3-carboxamide]	3000 to 10000 nM
